# Results as given in publication PMC3871618 (PLoS ONE, 2013).
# Columns and labels:
# ABCB1 [1] = target: T1, ABCB1 (Homo sapiens, UniProt P08183); assay: ABCB1-ATPase activation assay (baseline), Sf9 membranes; type: biochemical; set-up: purchased Solvo Biotechnology (Szeged, Hungary); host or cells: Sf9 insect cell membranes; conditions: from ATPase activity in Sf9 membranes overexpressing human ABCB1
# Protocol: (§1) The drug efflux function of ABCB1 is linked to hydrolysis of ATP by ATPase, which is stimulated in the presence of ABCB1 substrates. In the activation assay, transported substrates can stimulate baseline vanadate-sensitive ATPase activity, whereas in the inhibition assay, which is carried out in the presence of a known activator of the transporter, inhibitors may reduce the maximal vanadate-sensitive ATPase activity. ATPase activity was measured by assessing the amount of phosphate liberated from ATP by the ABCB1 transporter using the […] ATPase kit for ABCB1 according to the manufacturer’s instructions. For this purpose, Sf9 cell membranes (4 µg protein per well) were mixed with each of the test compounds (singly) in solutions with concentrations ranging from 140 nM to 300 µM, then incubated at 37°C for 10 min in the presence or absence of 1.2 mM sodium orthovanadate. The reaction was started by adding 10 mM ATP solution (magnesium salt) to the reaction mixture, stopped 10 min later, and the absorbance at 590 nm was measured after a further 30 min incubation (GeniosPlus apparatus; Tecan, Männedorf, Switzerland). The ATPase activity in each sample was determined as the difference in liberated amounts of phosphate measured in the presence and absence of 1.2 mM sodium orthovanadate. Phosphate standards were prepared in each plate and verapamil served as a positive control for ABCB1 stimulation. The results are expressed as vanadate-sensitive ATPase activities.
# ABCB1 [2] = target: T1, ABCB1; assay: ABCB1-ATPase inhibition assay (verapamil-stimulated), Sf9 membranes; type: biochemical; set-up: purchased Solvo Biotechnology (Szeged, Hungary); host or cells: Sf9 insect cell membranes; conditions: 140 nM to 300 µM
# Protocol: as §1
# ABCB1 transporter [3] = target: T2, ABCB1 transporter (Homo sapiens, UniProt P08183); assay: HOE (Hoechst 33342) accumulation in MDCKII-ABCB1 cells; type: cell-based; conditions: 8 µM HOE, end-point fluorescence at 30 min, 50% of each compound's own maximum inhibitory activity, read-out: IC50, inhibition of ABCB1-mediated efflux of HOE
# T2 construct: expressed in transfected cells; host or cells: MDCKII (canine kidney) cells transduced with human ABCB1, from Prof; Piet Borst and Dr. Alfred Schinkel (The Netherlands Cancer Institute)
# Protocol: (§2) To investigate the inhibitory activity of CDKi on ABCB1, the intracellular accumulation of HOE, a fluorescent ABCB1 substrate, was examined in both MDCKII-ABCB1 and MDCKII parent cell lines in the presence and absence of the tested compounds. The reduction in fluorescence intensity in ABCB1-transduced cells indicates the efflux activity of the ABCB1 transporter, its inhibition increases HOE accumulation and thus the intracellular fluorescence.
# (§3) The assay was conducted as previously described and optimized for application in ABCB1-expressing cells. Briefly, MDCKII-ABCB1 and MDCKII parent cells were seeded at 5×10^4 cells per well on a 96-well culture plate and used for accumulation experiments after 24 h cultivation. The medium was removed and cells were washed twice with prewarmed phosphate buffered saline (PBS) at pH 7.4.
# ABCB1 [4] = target: T1, ABCB1; assay: as above; type: cell-based; set-up: expressed in transfected cells; host or cells: MDCKII (canine kidney) cells transduced with human ABCB1, from Prof; Piet Borst and Dr. Alfred Schinkel (The Netherlands Cancer Institute); conditions: human, probe Hoechst 33342 (HOE), 8 µM, CDKi applied at their respective IC50 concentrations, % as strongly as LY, read-out: Inhibition of HOE efflux relative to LY
# Protocol: as §2, §3
# mouse P-glycoprotein = tested on: mouse P-glycoprotein; set-up: method as in PMID 15338193; conditions: cited from earlier work
# ABCB1 transporter [5] = target: T2, ABCB1 transporter; assay: DNR accumulation in MDCKII-ABCB1 cells (flow cytometry), normalized to parental MDCKII; type: cell-based; conditions: 1 - 20 µM CDKi, 2 µM DNR
# Protocol: Briefly, MDCKII-ABCB1 and MDCKII parent cells were seeded at 1.5×10^5 cells per well on a 12-well plate 24 h before the experiment. The medium was removed and the cells were washed with prewarmed PBS. The cells were then preincubated in Opti-MEM, with or without CDKi or LY at 37°C in 5% CO2 for 30 min. […] Accumulation was stopped by cooling the samples on ice, removing the medium and washing twice with ice-cold PBS. The cells were then detached from the plates with 10× trypsin-EDTA, resuspended in PBS with 2% FBS and transferred to Eppendorf tubes, which were placed on ice until analysis. […] The median fluorescence (MF) intensity of 10,000 measured cells was used to compare the fluorescence resulting from each of the treatments. […] The MF intensity of untreated cells was subtracted from fluorescence values obtained for all the measured samples.
# To quantify the inhibitory effect of each tested compound on the ABCB1 transporter in the MDCKII-ABCB1 cell line, the ratio between the MF intensity with or without inhibitor was calculated and normalized to the effect in the parental MDCKII cell line according to the following equation [30]: [drawing 1]
# T1 sequence (P08183 whole entry): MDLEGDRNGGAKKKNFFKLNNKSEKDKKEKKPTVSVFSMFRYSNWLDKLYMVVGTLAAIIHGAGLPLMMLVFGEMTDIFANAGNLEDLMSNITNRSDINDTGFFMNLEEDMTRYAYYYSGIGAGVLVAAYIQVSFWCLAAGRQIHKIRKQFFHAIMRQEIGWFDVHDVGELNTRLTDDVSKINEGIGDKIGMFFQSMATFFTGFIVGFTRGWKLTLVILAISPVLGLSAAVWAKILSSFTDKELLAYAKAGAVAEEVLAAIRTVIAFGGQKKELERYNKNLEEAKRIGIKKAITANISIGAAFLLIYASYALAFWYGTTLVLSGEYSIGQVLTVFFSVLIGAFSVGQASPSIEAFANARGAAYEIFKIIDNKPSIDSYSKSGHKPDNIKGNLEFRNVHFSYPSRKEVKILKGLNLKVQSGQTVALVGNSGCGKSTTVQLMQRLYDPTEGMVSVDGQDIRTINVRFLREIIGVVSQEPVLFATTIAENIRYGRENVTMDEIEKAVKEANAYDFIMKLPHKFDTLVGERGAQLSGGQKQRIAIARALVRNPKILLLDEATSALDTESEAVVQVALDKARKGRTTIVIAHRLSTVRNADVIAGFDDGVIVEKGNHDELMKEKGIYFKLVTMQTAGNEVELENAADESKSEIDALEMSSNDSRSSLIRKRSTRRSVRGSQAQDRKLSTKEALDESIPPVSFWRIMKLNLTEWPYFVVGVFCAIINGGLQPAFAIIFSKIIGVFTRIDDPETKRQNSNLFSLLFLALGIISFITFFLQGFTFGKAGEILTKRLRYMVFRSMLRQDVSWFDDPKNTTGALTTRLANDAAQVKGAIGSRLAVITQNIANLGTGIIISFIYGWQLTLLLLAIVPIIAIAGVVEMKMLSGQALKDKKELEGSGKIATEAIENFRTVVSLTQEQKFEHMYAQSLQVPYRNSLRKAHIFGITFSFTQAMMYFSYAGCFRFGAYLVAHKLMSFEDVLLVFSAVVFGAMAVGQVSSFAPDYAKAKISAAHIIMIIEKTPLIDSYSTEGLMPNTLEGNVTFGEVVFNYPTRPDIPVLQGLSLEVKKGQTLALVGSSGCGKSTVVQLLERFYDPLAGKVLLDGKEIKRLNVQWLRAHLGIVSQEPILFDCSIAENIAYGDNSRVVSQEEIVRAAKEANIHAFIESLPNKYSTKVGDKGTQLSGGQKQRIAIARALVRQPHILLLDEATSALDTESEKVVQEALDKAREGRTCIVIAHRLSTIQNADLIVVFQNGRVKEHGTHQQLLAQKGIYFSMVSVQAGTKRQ
# T2 sequence (P08183 whole entry): as above
structure (smiles),measurement,setting,value
CC(C)(C)c1cnc(CSc2cnc(NC(=O)C3CCNCC3)s2)o1 [SNS-032],ABCB1 substrate classification,ABCB1 [1],non-substrates of ABCB1
same,Effect on verapamil-stimulated vanadate-sensitive ATPase activity of ABCB1,ABCB1 [2],only slightly reduced it at the highest tested concentration
same,IC50,ABCB1 transporter [3],14.6 µM
same,inhibition at 30 min,ABCB1 [4],23%
same,Substrate of mouse P-glycoprotein (brain levels Abcb1 knockout vs wild type mice),mouse P-glycoprotein,substrate of mouse P-glycoprotein
same,Inhibition of DNR efflux/accumulation across applied range,ABCB1 transporter [5],did not inhibit DNR accumulation at any tested concentration
